Data taken from patent US6423744B1, “Method of diminishing the adverse effects of interleukin-2” (Biomedicines, Inc., priority 1998, dated 2002).
pIC50: −log10 of the molar value.

Experiments:
[1] = tested on: B16/BL6 murine melanoma tumor cells; assay: Murine model of B16 melanoma lung metastases (Example 5); assay type: in vivo
Description: The B16/BL6 murine melanoma tumor cells for injection were obtained from in vitro culture. Mice were inoculated with 3×10^5 cells intravenously on Day 0.
Tumor cells were injected on Day 0. […] An additional group of 15 untreated control mice was used for timing the termination of the study. At Day 10, three untreated control mice were to be euthanized each day until tumor burden was determined to be optimal for counting metastatic foci, at which time the remaining rumored and five non-rumored mice were to be euthanized and lungs removed for determination of body weights, lung weights and numbers of metastatic foci.
Anti-tumor activity was assessed by counts of metastatic foci in the lungs. Comparison among the three treatment groups (Groups 1, 2 and 3) was performed using one-way ANOVA (or Kruskal-Wallis one-way analysis of variance on ranks for data with non-normal distribution) with the three between-group comparisons performed using adjustment for multiple comparisons.

[2] = tested on: IL-2-induced reduction in oxygenation; settings: rat
Description: Animals were weighed on the day of dosing and the appropriate doses of IL-2 and/or LA were calculated. The animals remained conscious throughout the experiment until an anesthetic was administered approximately 10 minutes before exsanguination. The anesthetic consisted of a mixture of ketamine (45 mg/ml) xylazine (2.5 mg/ml), and acepromazine (0.37 mg/ml) diluted with water and administered subcutaneously at a dose of 2.0 ml/kg.
Group 1 (n=14) consisted of control animals that received both i.v. and i.p. injections of vehicle. The other five groups received i.v. injections of IL-2 via the tail vein. Groups 2 (n=8), 3 (n=4), and 4 (n=10) received IL-2 in doses of 1.5, 6.0, and 12.5 million IU(MIU)/kg, respectively. In addition to 12.5 million IU/kg of IL-2, Groups 5 (n=8) and 6 (n=13) received i.p. injections of the LA. The LA was administered in two equal, divided doses; the first dose of LA was given 20 minutes before administration of IL-2 and the second dose was given 50 minutes after administration of IL-2. Group 5 was administered 2×10 mg/kg of the LA. Group 6 was administered 2×30 mg/kg of the LA.
Two hours after the IL-2 injection, the animals were exsanguinated via the abdominal aorta and the arterial blood was collected for measurement of PaO2.
Whole arterial blood was collected into heparinized blood arterial gas syringes. Immediately after collection, the blood sample was analyzed using PaO2 electrode model DO-166FT. Sample blood was pre-oxygenated and used as a standard before and after each test sample.
Data are shown as mean±SEM. Data were analyzed using the Tukey-Kramer test (JMP® statistical software from SAS, Inc.) Significance was defined as a p-value less than 0.05.

[3] = tested on: renal cell carcinoma; settings: IL-2 treatment alone; cited from earlier work
[4] = tested on: IL-2-induced toxicity; settings: rat, in vivo
Description: (§1) Six groups of animals were studied (total N=59). […] The animals remained conscious throughout the experiment until an anesthetic was administered approximately 10 minutes before planned exsanguination. The anesthetic consisted of a mixture of ketamine (45 mg/ml), xylazine (2.5 mg/ml), and acepromazine (0.37 mg/ml) diluted with water and administered subcutaneously at a dose of 2.0 ml/kg.
(§2) IL-2 or IL-2 vehicle was administered by bolus injection via the tail vein. […] Two hours after the injection of IL-2 or IL-2 vehicle, animals were exsanguinated via the abdominal aorta and the arterial blood was collected for measurement of PaO2.
(§3) Group 1 (n=13) consisted of control animals that received injections of each vehicle, either i.v. or i.p. as appropriate. The other five groups received i.v. bolus injections of IL-2 via the tail vein. Groups 2 (n=8), 3 (n=5), and 4 (n=13) received IL-2 in doses of 1.5, 6.0, and 12.5 million IU/kg, respectively.
The study was conducted in two phases.
(§4) Whole arterial blood was collected into heparinized syringes. Immediately after collection, the blood sample was analyzed using a Lazar Research Laboratories flow-through dissolved-oxygen probe. The cell temperature was set to 37 degrees centigrade. A syringe pump was set to 0.5 ml/min to introduce the sample. The cell was zeroed using a solution of heparin and isotonic saline equilibrated with 100% nitrogen. The cell was then calibrated using a solution of heparin and isotonic saline equilibrated with 20% oxygen. After each PaO2 determination in whole blood was made, the cell was washed with heparin ad isotonic saline. A 20% O2 standard was introduced before each sample to ensure accurate and reliable measurements.
(§5) If the data appeared to be normally distributed, the comparison was to be made using Student's t-test.

[5] = tested on: 12 (R)-HETE; assay: Inhibition of 12 (R)-HETE in guinea pigs; assay type: in vivo; settings: Cavia porcellus, po; i.g.
[6] = tested on: renal cell carcinoma; assay: Clinical trial of LA plus IL-2 in patients with renal cell carcinoma (Example 6); assay type: in vivo, human
Description: A preferred LA compound (as defined in Example 3) from drug substance lot # BA901 was supplied as 25 mg capsules Batch # 99G111 by BioMedicines, Inc. Each hard gelatin capsule contained 25 mg LA plus excipients including lactose hydrous NF; hydroxypropylmethylcellulose 2910, 6 cps USP; sodium lauryl sulfate NF; purified water, USP; and sodium chloride.
Patients received IL-2 600,000 IU/kg by intravenous bolus three times daily during 5 days for a planned total of 14 doses. LA was administered orally 1 hour prior to each schedule dose of IL-2 as well as 8 hours after the final scheduled dose. If dose of IL-2 was withheld because of IL-2 induced toxicity, dosing with LA continued. Doses of LA ranged from 25 mg three times daily (TID) to 75 mg TID. Plasma levels of LA were obtained at each dose level.
The principal activity endpoint was the relationship between the total number of doses of IL-2 that could be administered and well tolerated by patients and the plasma levels of LA. A second endpoint was the response rate in patients of the tumor to the combination therapy with the leukotriene B4 receptor antagonist and IL-2 as judged by complete responses (total disappearance of measurable tumor) or partial responses (a ≧50% decrease in measurable tumor volume).
Data were analyzed by examining the significance of the correlation between number of doses of IL-2 and LA plasma level (Spearman's rho).

[7] = tested on: LTB4 chemotaxis; assay: Inhibition of LTB4 chemotaxis (in vitro); assay type: cell-based
[8] = tested on: acetic acid colonic inflammation; assay: Inhibition of acetic acid colonic inflammation; assay type: in vivo; settings: Rattus norvegicus, po; i.g.; read-out: Inhibition of acetic acid colonic inflammation in rats and guinea pig, ED50
[9] = tested on: human neutrophil adhesion to LTB4-stimulated umbilical vein endothelial cells; assay: Inhibition of human neutrophil adhesion to LTB4-stimulated umbilical vein endothelial cells; assay type: cell-based
[10] = tested on: LTB4-induced neutrophil granulation; assay: Inhibition of LTB4-induced neutrophil granulation; assay type: cell-based
[11] = tested on: IL-2-induced toxicity; assay: Rat model of IL-2-induced toxicity, PaO2 (Example 4); settings: Biomed 101 (20 or 60 mg/kg total i.p.) with IL-2 12.5 MIU/kg
Description: as §1, §2, §3
The study was conducted in two phases.
as §4, §5

[12] = Biomed 101 plasma levels in rats (HPLC); assay type: in vivo, Sprague Dawley rats; settings: rat
Description: In animals dosed with Biomed 101, plasma levels of Biomed 101 were assayed with a validated, high-pressure liquid chromatographic method.

[13] = tested on: LTB4 chemotaxis; assay: Inhibition of LTB4 chemotaxis in guinea pigs; assay type: in vivo; settings: Cavia porcellus, po; i.g.
[14] = tested on: calcium ionophore dermal inflammation; assay: Inhibition of calcium ionophore dermal inflammation in the guinea pig ear; settings: in vivo
[15] = tested on: LTA4 conversion into LTB4; assay: Inhibition of LTA4 conversion into LTB4; assay type: biochemical
[16] = assay type: in vivo; settings: intraperitoneal, bid for 4 days, tumored mice treated with IL-2; preliminary study
[17] = tested on: LTB4 synthesis; assay: Inhibition of LTB4 synthesis; assay type: biochemical

For “des-alanyl-1, serine-125 human interleukin-2 [IL-2]”, the “Median Lung Weight” value ([1]; Day 10, vehicle control 174) was 177 mg, the “lung weights compared with vehicle control” value ([1]; Kruskal-Wallis) was “did not decrease” and the deaths ([1]; mice, Group 2, IL-2 1 mg/kg iv, Day 4) was “one death”. For the same molecule, the “Changes in Metastases (mean) (N)” value ([1]; treated group compared with control (untreated) group) was −32 N, the “arterial oxygen level (PaO2), mean±SEM” value ([2]; in vivo, iv) was 77.5±2.5 mm Hg and the “effect of progressively higher doses on arterial oxygen levels” value ([2]; in vivo, iv) was “progressively reduced”. The “objective response rate historically noted” value [3] was 8-10%, the “Change in Oxygen (mean) (mm Hg)” value [4] was −15 mm Hg and the “decrease of mean PaO2 for each increase of 1 MIU/kg in IL-2 administered” value [4] was “approximately 1.8 mm Hg”. For the same molecule, the “effect on PaO2” value [4] was “significant fall”.
With `CCCc1c(OCCCOc2ccc(C(C)=O)c(OC)c2CCC)ccc2c1OC(C(=O)O)CC2` (racemic) [Biomed 101, (±)7-[3-(4-acetyl-3-methoxy-2-propylphenoxy)propoxy]-3,4-dihydro-8-propyl-2H-1-benzopyran-2-carboxylic acid] the “Number of lung mets Mean (± SEM)” value ([1]; Day 10, IL-2 1 mg/kg iv, Biomed 101 25 mg/kg ip with IL-2, q6hx2, qdx4, vehicle control 98) was 56, the “effect of coadministration on the anti-tumor activity of IL-2” value ([1]; mice, Biomed 101 25 mg/kg ip with IL-2) was “fully preserves and may enhance” and the ED50 [5] was 20 mg/kg. The “number of doses of IL-2 withheld because of IL-2 toxicity as plasma level of LA increased” value [6] was “decreased”, the “total number of doses of IL-2 well tolerated as LA dose and plasma level rose” value [6] was “rose” and the “plasma level of LA with total daily dose” value ([6]; 25 mg TID to 75 mg TID orally) was “increased”. For the same molecule, the “Inhibition of LTB4 chemotaxis, range” value [7] was 0.3 to 3.0 µM, the ED50 [8] was 20 mg/kg and the “Inhibition of human neutrophil adhesion to LTB4-stimulated umbilical vein endothelial cells, range” value [9] was 0.3 to 1.0 µM. For the same molecule, the “effect of LA on the reduction in oxygenation induced by IL-2” value ([2]; LA 2×10 or 2×30 mg/kg i.p. with IL-2 12.5 MIU/kg i.v., p>0.5 vs control, p<0.001 vs IL-2 alone) was “mitigated”, the “Inhibition of LTB4-induced neutrophil granulation, range” value [10] was 1 to 3 µM and the “Median PaO2 versus IL-2 alone” value [11] was “significantly higher”. The “Median PaO2 versus control animals” value [11] was “not significantly different”, the “mean plasma level (± standard error of the mean) of Biomed 101” value ([12]; 20 mg/kg Biomed 101 i.p. (2×10 mg/kg)) was 2.0 (±0.26) μg/ml and the “mean plasma level (± standard error of the mean) of Biomed 101” value ([12]; 60 mg/kg Biomed 101 i.p. (2×30 mg/kg)) was 6.4 (±0.89) μg/ml. The ED50 [13] was 0.6 mg/kg, the “Inhibition of calcium ionophore dermal inflammation in the guinea pig ear, ED50” value [14] was 0.7 mg/ear and the pIC50 [15] was 4.70. The highest tolerated dose [16] was 25 mg/kg bid and the pIC50 [17] was 5.68.
